Measurements taken from patent US9533987B2, “Heterocyclic derivates” (KALVISTA PHARMACEUTICALS LIMITED, priority 2013, dated 2017).

What was measured:
Human KLK1 = Human KLK1 (Homo sapiens (Human), UniProt P06870); assay: Determination of the IC50 for KLK1 (fluorogenic substrate H-DVal-Leu-Arg-AFC); type: biochemical; settings: 37° C.
Experimental: Determination of the IC50 for KLK1
(§1) Human KLK1 (Callbiochem) was incubated at 37° C. with the fluorogenic substrate H-DVal-Leu-Arg-AFC and various concentrations of the test compound. Residual enzyme activity (initial rate of reaction) was determined by measuring the change in […] at 410 nm and the IC50 value for the test compound was determined.

Human plasma kallikrein = Human plasma kallikrein (Homo sapiens (Human), UniProt P03952); assay: Determination of the IC50 for plasma kallikrein (fluorogenic substrate H-DPro-Phe-Arg-AFC); type: biochemical; settings: 37° C., read-out: IC50 (human PKaI)
Sequence of Human plasma kallikrein (P03952 391-638): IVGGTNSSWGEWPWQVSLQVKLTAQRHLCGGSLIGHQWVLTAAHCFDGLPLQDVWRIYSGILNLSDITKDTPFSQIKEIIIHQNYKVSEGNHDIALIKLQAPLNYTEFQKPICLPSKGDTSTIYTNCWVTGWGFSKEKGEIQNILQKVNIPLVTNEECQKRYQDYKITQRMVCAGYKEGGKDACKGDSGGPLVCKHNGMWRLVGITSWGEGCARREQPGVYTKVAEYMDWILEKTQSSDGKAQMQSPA
Sequence of Human plasma kallikrein (P03952 20-390 partner): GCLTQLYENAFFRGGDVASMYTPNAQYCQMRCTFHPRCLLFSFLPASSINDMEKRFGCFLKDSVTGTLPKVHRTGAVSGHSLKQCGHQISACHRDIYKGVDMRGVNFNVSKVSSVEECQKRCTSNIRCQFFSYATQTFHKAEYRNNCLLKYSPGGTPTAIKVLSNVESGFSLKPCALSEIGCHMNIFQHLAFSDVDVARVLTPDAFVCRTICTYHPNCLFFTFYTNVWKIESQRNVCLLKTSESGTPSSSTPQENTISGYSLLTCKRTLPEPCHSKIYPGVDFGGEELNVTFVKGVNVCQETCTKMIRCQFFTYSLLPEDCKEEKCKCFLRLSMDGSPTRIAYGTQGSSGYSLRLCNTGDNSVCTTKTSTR
Experimental: Determination of the IC50 for Plasma Kallikrein
as §1, with “plasma kallikrein (Protogen)” for “KLK1 (Callbiochem)”, “H-DPro-Phe-Arg-AFC” for “H-DVal-Leu-Arg-AFC”

Sequence of Human KLK1 (P06870 25-262): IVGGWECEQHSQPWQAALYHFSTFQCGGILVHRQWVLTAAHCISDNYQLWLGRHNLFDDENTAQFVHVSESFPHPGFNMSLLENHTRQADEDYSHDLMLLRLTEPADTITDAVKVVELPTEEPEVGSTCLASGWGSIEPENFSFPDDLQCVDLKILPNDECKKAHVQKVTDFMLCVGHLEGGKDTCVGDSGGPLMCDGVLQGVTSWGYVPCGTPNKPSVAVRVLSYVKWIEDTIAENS

Compound | IC50 (Human KLK1) [µM] | IC50 (Human plasma kallikrein) [nM]
Cc1nc2[nH]ccc2c(C)c1CNC(=O)c1cn(Cc2ccc(Cn3ccccc3=O)cc2)nc1C(F)(F)F [Example 8, 1-[4-(2-Oxo-2H-pyridin-1-ylmethyl)-benzyl]-3-trifluoromethyl-1H-pyrazole-4-carboxylic acid (4,6-dimethyl-1H-pyrrolo[2,3-b]pyridin-5-ylmethyl)-amide] | > 10 | 3.72
CCOc1cc(Cn2cc(C(=O)NCc3ccc4c(N)nccc4c3)c(C(F)(F)F)n2)cnc1Cl [Example 74, 1-(6-Chloro-5-ethoxy-pyridin-3-ylmethyl)-3-trifluoromethyl-1H-pyrazole-4-carboxylic acid (1-amino-isoquinolin-6-ylmethyl)-amide] | 2.77 | 425
Nc1nccc2cc(CNC(=O)c3cn(Cc4ccc(N5CCCC5)nc4)nc3C3CC3)ccc12 [Example 90, 3-Cyclopropyl-1-(6-pyrrolidin-1-yl-pyridin-3-ylmethyl)-1H-pyrazole-4-carboxylic acid (1-amino-isoquinolin-6-ylmethyl)-amide] | 4.7 | 11.6
O=C(NCc1n[nH]c2ccc(Cl)cc12)c1cn(Cc2ccc(N3CCCC3)nc2)nc1C(F)(F)F [Example 128, 1-(6-Pyrrolidin-1-yl-pyridin-3-ylmethyl)-3-trifluoromethyl-1H-pyrazole-4-carboxylic acid (5-chloro-1H-indazol-3-ylmethyl)-amide] | > 10 | 24.9
Cc1cnn(Cc2ccc(Cn3cc(C(=O)NCc4ccc5c(N)nccc5c4)c(CO)n3)cc2)c1 [Example 15, 3-Hydroxymethyl-1-[4-(4-methyl-pyrazol-1-ylmethyl)-benzyl]-1H-pyrazole-4-carboxylic acid (1-amino-isoquinolin-6-ylmethyl)-amide] | 6.64 | 1.17
Nc1nccc2cc(CNC(=O)c3cn(Cc4cnc(N5CCCC5)nc4)nc3C(F)(F)F)ccc12 [Example 64, 1-(2-Pyrrolidin-1-yl-pyrimidin-5-ylmethyl)-3-trifluoromethyl-1H-pyrazole-4-carboxylic acid (1-amino-isoquinolin-6-ylmethyl)-amide] | 2.79 | 10.4
CCOc1ccc(Cn2cc(C(=O)NCc3ccc4c(N)nccc4c3)c(NC(=O)COC)n2)cn1 [Example 27, 1-(6-Ethoxy-pyridin-3-ylmethyl)-3-(2-methoxy-acetylamino)-1H-pyrazole-4-carboxylic acid (1-amino-isoquinolin-6-ylmethyl)-amide] | 3.2 | 128
Nc1nccc2cc(CNC(=O)c3cn(Cc4ccc(N5CCC(F)(F)C5)nc4)nc3C3CC3)ccc12 [Example 87, 3-Cyclopropyl-1-[6-(3,3-difluoro-pyrrolidin-1-yl)-pyridin-3-ylmethyl]-1H-pyrazole-4-carboxylic acid (1-amino-isoquinolin-6-ylmethyl)-amide] | 6.46 | 23.2
COc1cc(N2CCCC2)ncc1Cn1cc(C(=O)NCc2ccc3c(N)nccc3c2)c(C2CC2)n1 [Example 89, 3-Cyclopropyl-1-(4-methoxy-6-pyrrolidin-1-yl-pyridin-3-ylmethyl)-1H-pyrazole-4-carboxylic acid (1-amino-isoquinolin-6-ylmethyl)-amide] | 0.96 | 17.8
CCOc1ncc(Cn2cc(C(=O)NCc3ccc4c(N)nccc4c3)c(C3CC3)n2)cc1Cl [Example 94, 1-(5-Chloro-6-ethoxy-pyridin-3-ylmethyl)-3-cyclopropyl-1H-pyrazole-4-carboxylic acid (1-amino-isoquinolin-6-ylmethyl)-amide] | 2 | 53.2
Nc1nccc2cc(CNC(=O)c3cn(Cc4csc(Cn5cccn5)n4)nc3C(F)(F)F)ccc12 [Example 81, 1-(2-Pyrazol-1-ylmethyl-thiazol-4-ylmethyl)-3-trifluoromethyl-1H-pyrazole-4-carboxylic acid (1-amino-isoquinolin-6-ylmethyl)-amide] | 8.97 | 26.5
Cc1cnn(Cc2nc(Cn3cc(C(=O)NCc4ccc5c(N)nccc5c4)c(C(F)(F)F)n3)cs2)c1 [Example 82, 1-[2-(4-Methyl-pyrazol-1-ylmethyl)-thiazol-4-ylmethyl]-3-trifluoromethyl-1H-pyrazole-4-carboxylic acid (1-amino-isoquinolin-6-ylmethyl)-amide] | 4.71 | 21.2
NC(=O)c1cnn(Cc2ccc(Cn3cc(C(=O)NCc4ccc5c(N)nccc5c4)c(C(F)(F)F)n3)cc2)c1 [Example 78, 1-[4-(4-Carbamoyl-pyrazol-1-ylmethyl)-benzyl]-3-trifluoromethyl-1H-pyrazole-4-carboxylic acid (1-amino-isoquinolin-6-ylmethyl)-amide] | > 10 | 91.1
Cc1cnn(Cc2ccc(Cn3cc(C(=O)NCc4ccc5c(N)nccc5c4)c(-c4c(C)noc4C)n3)cc2)c1 [Example 20, 3-(3,5-Dimethyl-isoxazol-4-yl)-1-[4-(4-methyl-pyrazol-1-ylmethyl)-benzyl]-1H-pyrazole-4-carboxylic acid (1-amino-isoquinolin-6-ylmethyl)-amide] | > 10 | 0.89
Cc1cnn(Cc2ccc(Cn3cnc(C(=O)NCc4ccc5c(N)nccc5c4)c3)cc2)c1 [Example 10, 1-[4-(4-Methyl-pyrazol-1-ylmethyl)-benzyl]-1H-imidazole-4-carboxylic acid (1-amino-isoquinolin-6-ylmethyl)-amide] | > 10 | 2.4
Cc1cnn(Cc2ccc(Cn3cc(C(=O)NCc4ccc5c(N)nccc5c4)c(C(=O)O)n3)cc2)c1 [Example 17, 4-[(1-Amino-isoquinolin-6-ylmethyl)-carbamoyl]-1-[4-(4-methyl-pyrazol-1-ylmethyl)-benzyl]-1H-pyrazole-3-carboxylic acid] | > 10 | 1190
Cc1cnn(Cc2ccc(Cn3cc(C(=O)NCc4ccc5c(N)nccc5c4)cn3)cc2)c1 [Example 31, 1-[4-(4-Methyl-pyrazol-1-ylmethyl)-benzyl]-1H-pyrazole-4-carboxylic acid (1-amino-isoquinolin-6-ylmethyl)-amide] | > 10 | 2
Nc1nccc2cc(CNC(=O)c3cn(Cc4ccc(N5CC[C@@H](CO)C5)nc4)nc3C(F)(F)F)ccc12 [Example 70, 1-[6-((R)-3-Hydroxymethyl-pyrrolidin-1-yl)-pyridin-3-ylmethyl]-3-trifluoromethyl-1H-pyrazole-4-carboxylic acid (1-amino-isoquinolin-6-ylmethyl)-amide] | 4.91 | 66.9
CCCOc1ccc(Cn2cc(C(=O)NCc3ccc4c(N)nccc4c3)c(C(F)(F)F)n2)cn1 [Example 71, 1-(6-Propoxy-pyridin-3-ylmethyl)-3-trifluoromethyl-1H-pyrazole-4-carboxylic acid (1-amino-isoquinolin-6-ylmethyl)-amide] | > 10 | 63.6
O=C(NCc1n[nH]c2ccc(Cl)cc12)c1cn(Cc2ccc(Cn3ccccc3=O)cc2)nc1C(F)(F)F [Example 129, 1-[4-(2-Oxo-2H-pyridin-1-ylmethyl)-benzyl]-3-trifluoromethyl-1H-pyrazole-4-carboxylic acid (5-chloro-1H-indazol-3-ylmethyl)-amide] | > 10 | 2.14
CC(C)Oc1cc(Cn2cc(C(=O)NCc3ccc4c(N)nccc4c3)c(C(F)(F)F)n2)ccn1 [Example 66, 1-(2-Isopropoxy-pyridin-4-ylmethyl)-3-trifluoromethyl-1H-pyrazole-4-carboxylic acid (1-amino-isoquinolin-6-ylmethyl)-amide] | > 10 | 281
Nc1nccc2cc(CNC(=O)c3cnn(Cc4ccc(Cn5cccn5)cc4)c3N)ccc12 [Example 53, 5-Amino-1-(4-pyrazol-1-ylmethyl-benzyl)-1H-pyrazole-4-carboxylic acid (1-amino-isoquinolin-6-ylmethyl)-amide] | > 10 | 16.8
Nc1nn(Cc2ccc(Cn3ccccc3=O)cc2)cc1C(=O)NCc1cccc2[nH]ncc12 [Example 113, 3-Amino-1-[4-(2-oxo-2H-pyridin-1-ylmethyl)-benzyl]-1H-pyrazole-4-carboxylic acid (1H-indazol-4-ylmethyl)-amide] | 5.95 | 13.3
Cc1cnn(Cc2ccc(Cn3cc(C(=O)NCc4n[nH]c5ccc(Cl)cc45)c(C(F)(F)F)n3)cc2)c1 [Example 127, 1-[4-(4-Methyl-pyrazol-1-ylmethyl)-benzyl]-3-trifluoromethyl-1H-pyrazole-4-carboxylic acid (5-chloro-1H-indazol-3-ylmethyl)-amide] | > 10 | 537
CCOc1ncc(Cn2cc(C(=O)NCc3ccc4c(N)nccc4c3)c(C(F)(F)F)n2)cc1F [Example 75, 1-(6-Ethoxy-5-fluoro-pyridin-3-ylmethyl)-3-trifluoromethyl-1H-pyrazole-4-carboxylic acid (1-amino-isoquinolin-6-ylmethyl)-amide] | 1.3 | 98.3
CCN(CC)c1ncc(Cn2cc(C(=O)NCc3ccc4c(N)nccc4c3)c(C3CC3)n2)cc1F [Example 95, 3-Cyclopropyl-1-(6-diethylamino-5-fluoro-pyridin-3-ylmethyl)-1H-pyrazole-4-carboxylic acid (1-amino-isoquinolin-6-ylmethyl)-amide] | 9.64 | 34
O=C(NCc1cnc2[nH]ccc2c1)c1cn(Cc2ccc(N3CCCC3)nc2)nc1C(F)(F)F [Example 114, 1-(6-Pyrrolidin-1-yl-pyridin-3-ylmethyl)-3-trifluoromethyl-1H-pyrazole-4-carboxylic acid (1H-pyrrolo[2,3-b]pyridin-5-ylmethyl)-amide] | 1.21 | 304
